Laboratory results as given in patent publication US7691827B2, “Amide prodrug of gemcitabine, compositions and use thereof” (Eli Lilly and Company, priority 2004, dated 2010).

Tests used:
[1] = cited from earlier work
[2] = result of first pass metabolism; cited from earlier work
[3] = Small Intestine Homogenate Assay (monkey); type: in vitro ADME, cynomolgus monkeys; conditions: monkey SIH
Protocol: (§1) Small Intestine Homogenate Assay
(§2) To determine the stability of a compound of formula I to enzymatic hydrolysis in the intestine, crude homogenates of small intestinal epithelial cells are prepared from sections of the upper small intestine from CD-1 mice, beagle dogs, cynomolgus monkeys, and humans. Mouse and dog homogenates are prepared from freshly collected tissue, while monkey and human homogenates are prepared from previously frozen tissues. Cells are gently scraped from intestinal segments, pooled, and homogenized in 50 mM acetate buffer using Polytron (PT-10-85). Protein concentrations are determined by standard spectrophotometric techniques. The prepared homogenates are store at −70° C. before using.
(§3) The hydrolytic rates of a compound of formula I in small intestinal homogenates (SIH) is determined by incubating a compound of formula I (100 uM) with SIH (2.5-5 mg/mL of total protein) in acetate at pH 7.5 for up to 6 hours. Concentrations of gemcitabine released via hydrolysis is determined by LC/MS analysis after the reaction is quenched with acetonitrile. Hydrolysis rates are calculated at 30 minutes in screening experiments and from the slope of the linear portion of the hydrolysis vs. time curves in characterization studies of a compound of formula I.

[4] = Small Intestine Homogenate Assay (human); type: in vitro ADME, humans; conditions: human SIH
Protocol: as §1, §2, §3

[5] = pH Chemical Stability Assay; type: physicochemical; conditions: pH range 1 to 8, after four hours, 40° C., 100 mcg/mL
Protocol: pH Chemical Stability Assay
The pH chemical stability is assessed using a semi-automated HPLC technique. Samples of compound of formula I are prepared at 100 mcg/mL in five buffers representing the pH range throughout the gastrointestinal tract (pH1-pH8). Samples are loaded onto an HPLC autosampler incubated at 40° C. Samples are repeatedly injected on the HPLC at hourly intervals for up to 24 hours with an HPLC column that separates a compound of formula I from gemcitabine. The peak area of the compound of formula I is monitored by UV detection over time and are compared to initial peak areas to determine stability.

[6] = Small Intestine Homogenate Assay (dog); type: in vitro ADME, beagle dogs; conditions: dog SIH, 100 uM, pH 7.5
Protocol: as §1, §2, §3

[7] = system: HCT-116 colon tumor cells; assay: In Vivo Assay, HCT-116 colon tumor xenograft; conditions: oral gavage, HCT-116 xenograft in female nude mice
Protocol: HCT-116 colon tumor cells are grown in vitro under standard tissue culture conditions, harvested, washed, and 5×10^6 cells (1:1 suspension in Matrigel, Collaborative Biomedical Products, Inc) are injected subcutaneously in the rear flank of female nude mice (Charles River, CD1 nu/nu, 24-27 g, irradiated with 450 Rads within 24 h of implantation). Tumors are allowed to grow to ˜100 mm^3 before initiation of therapy. Vehicle control, a compound of formula I or gemcitabine-HCl at various dose levels are administered to the mice by oral gavage (10 ml/kg volume) at the times indicated in the individual experiments. Compounds are administered either daily for fourteen days, every other day for a total of seven doses, or every third day for a total of four doses. […] Tumor size is determined by caliper measurements and tumor volume (mm^3) is estimated from the formula l×w^2×0.536, where l is the larger and w is the smaller of perpendicular diameters. All data (tumor measurements and animal weights) are captured twice-weekly beginning with the start of therapy and analyzed using a computer based tumor measurement system.

[8] = Liver S9 Hydrolysis Assay (dog); type: in vitro ADME, beagle dog; conditions: dog liver S9, 10 uM, pH 8.0
Protocol: (§4) Liver S9 Hydrolysis Assay
(§5) Hydrolysis of a compound of formula I by liver enzymes is determined by liver hydrolysis assay. Liver homogenates are prepared from CD-1 mouse, beagle dog, cynomolgus monkey, and human livers. Liver tissues are cut into small pieces using scissors, then, homogenized in 50 mM acetate buffer using Polytron (PT-10-85) for 1 min. Post-mitochondrial (S9) fractions are prepared from each by ultracentrifugation at 9,000×g at 4° C. for 10 min. Mouse, dog and monkey liver S9 fractions are prepared from freshly collected tissues, while human liver S9 are prepared from previously frozen tissue. After centrifugation, the supernatant is collected and protein concentrations are determined by standard spectrophotometric techniques. The prepared S9 fractions are store at −70° C. before using.
(§6) The hydrolytic rates of a compound of formula I in liver S9 is determined by incubating compound (10 uM) with S9 (2 mg/mL of total protein) in phosphate buffered saline at pH 8.0 for up to 6 hours. Concentrations of gemcitabine released via hydrolysis are determined by LC/MS analysis after the reaction is quenched with acetonitrile. Hydrolysis rates are calculated at 30 minutes in screening experiments and from the slope of the linear portion of the hydrolysis vs. time curves in characterization studies of a compound of formula I.

[9] = Liver S9 Hydrolysis Assay (mouse); type: in vitro ADME, CD-1 mouse; conditions: mouse liver S9, 10 uM, pH 8.0
Protocol: as §4, §5, §6

Mouse Pharmacokinetics = type: in vivo, CD-1 mice
Protocol: The pharmacokinetic profiles of gemcitabine and a compound of formula I, are assessed in male CD-1 mice following oral administration at doses selected to contain approximately 10 mg/kg of gemcitabine. Designated animals (n=3/time point/compound) are sacrificed at 0.08, 0.25, 0.5, 1, 2, and 6 hours after dosing, and systemic blood samples are collected into EDTA-treated tubes containing tetrahydrouridine (0.5 mM final concentration in blood) to inhibit further metabolism of gemcitabine. An additional 3 animals are sacrificed at 0.08 hours for collection of hepatic portal blood. Plasma is isolated by centrifugation and frozen prior to analysis. Plasma concentrations of gemcitabine and prodrugs are determined by LC/MS/MS analysis. Pharmacokinetic parameters are calculated using WinNonlin software (Pharsight Corp., Mountain View, Calif.). Pharmacokinetic parameters of each prodrug are compared to those determined from administration of oral gemcitabine hydrochloride in a similar study design.

[10] = Monkey Pharmacokinetics Assay; type: in vivo; conditions: administered intravenously to cynomolgus monkeys
Protocol: Monkey Pharmacokinetics Assay
The pharmacokinetic profiles of gemcitabine and a compound of formula I, are assessed in cynomolgus monkeys following oral and intravenous administration in a crossover design. Compounds are administered at doses selected to contain approximately 10 mg/kg of gemcitabine. Blood samples are collected into EDTA-treated tubes containing tetrahydrouridine (0.5 mM final concentration in blood) at designated intervals for up to 48 hours. Animals are pretreated with ranitidine (intravenous, 5 mg/kg) in the oral dosing periods. Plasma is isolated by centrifugation and frozen prior to analysis. Plasma concentrations of gemcitabine and a compound of formula I are determined by LC/MS/MS analysis. Pharmacokinetic parameters are determined using WinNonlin software (Pharsight Corp., Mountain View, Calif.).

[11] = Liver S9 Hydrolysis Assay (monkey); type: in vitro ADME, cynomolgus monkey
Protocol: as §4, §5, §6

[12] = Liver S9 Hydrolysis Assay (human); type: in vitro ADME
Protocol: as §4, §5, §6

[13] = 14 Day Mouse Study (oral toxicity and exposure); type: in vivo; conditions: 14 days oral gavage, CD-1 mice
Protocol: A 14-Day Mouse Study is conducted to evaluate whether a compound of formula I produces adverse effects in mice following 14 days of oral gavage dosing and to determine the plasma concentrations of a compound of formula I and its metabolites gemcitabine HCl and deoxydifluorouridine after 1 or 14 doses.
Male and female CD-1 mice 9-12 weeks of age are dosed with a compound of formula I […] by oral gavage. A range of doses is selected in an effort to determine a maximum tolerated dose and dose limiting toxicity. A dose volume of 10 mL/kg is used and doses are administered once daily.
Clinical signs, body weight, food consumption, hematology, clinical chemistry, plasma concentrations of a compound of formula I and metabolites gemcitabine HCl and deoxydifluorouridine, and pathology (including gross pathology, organ weights, and histopathology) are evaluated.

[14] = 7-Day Dog Study (oral toxicity); type: in vivo; conditions: oral capsule once daily for 7 days, beagle dogs
Protocol: To evaluate the toxicity profile of a compound of formula I when administered to Beagle dogs for 7 days, and to determine the plasma concentrations of a compound of formula I and metabolites gemcitabine HCl and deoxydifluorouridine after 1 or 7 doses, a 7-day dog study is conducted.
Male and female beagle dogs 6-48 months of age are dosed orally via capsule with a compound of formula I. A range of doses is selected in an effort to determine a maximum tolerated dose and dose limiting toxicity. A dose volume of 1 mL/kg is used and doses aree administered once daily.
Clinical signs, body weight, food consumption, body temperature, hematology (including coagulation), clinical chemistry, urinalysis, plasma concentrations of the compound of Example I and its metabolites gemcitabine HCl and deoxydifluorouridine, and pathology (including gross pathology, organ weights, and histopathology) were evaluated.

[15] = Small Intestine Homogenate Assay (mouse); type: in vitro ADME, CD-1 mice; conditions: mouse SIH, 100 uM, pH 7.5
Protocol: as §1, §2, §3

[16] = 4-Day Mouse Screen (oral toxicity); type: in vivo; conditions: oral gavage once daily for 4 days, molar equivalent of 8-mg/kg gemcitabine, female CD-1 mice
Protocol: To evaluate the toxicity produced by orally administered compound of formula I when administered daily to female […] mice for 4 days, the gastrointestinal toxicity profiles of a compound of formula I is compared with the historical results for gastrointestinal toxicity when gemcitabine is administered orally at 8 mg/kg in a 4-day mouse study.
Female CD-1 mice 5-8 weeks of age are dosed with a compound of formula I by oral gavage. A dose level is chosen to approximate a molar equivalent of 8-mg/kg gemcitabine. A dose volume of 10 mL/kg is used and doses are administered once daily on 4 consecutive days. Necropsy is performed approximately 5-8 hours following the 4th dose.
Clinical signs, clinical chemistry, gross pathology, and limited histopathology (ileum, jejunum, and liver) are evaluated.

Q: Which “death or gastrointestinal toxicity” value ([1]; comparable exposures via intravenous dosing, previous mouse studies) does the source give for `Nc1ccn([C@@H]2O[C@H](CO)[C@@H](O)C2(F)F)c(=O)n1` [gemcitabine, 2′,2′-difluoro-2′-deoxycytidine] here?
A: Its value is “did not result in death or gastrointestinal toxicity”.

Q: And the intestinal lesions ([1]; single oral (gavage) dose of 167, 333, or 500 mg/kg, mice)?
A: The intestinal lesions was “moderate-to-marked loss of mucosal epithelium (atrophic enteropathy)”.

Q: And the oral bioavailability [2]?
A: The oral bioavailability was “poor oral bioavailability”.

Q: What does the source list for `CCCC(CCC)C(=O)Nc1ccn([C@@H]2O[C@H](CO)[C@@H](O)C2(F)F)c(=O)n1` [Example 1, 1-(2,2-difluoro-2-deoxy-β-D-ribofuranosyl)-4-(2-propyl-1-oxopentyl)aminopyrimidin-2-one]?
A: rate of hydrolysis in small intestine homogenate ([3]; 100 uM, pH 7.5): slow rate of hydrolysis; total compound converted to gemcitabine ([3]; 6 hour incubation): less than 3%; rate of hydrolysis in small intestine homogenate ([4]; 100 uM, pH 7.5): slow rate of hydrolysis; total compound converted to gemcitabine ([4]; 6 hour incubation): less than 3%; compound degraded to gemcitabine [5]: Less than 25%; rate of hydrolysis in small intestine homogenate [6]: slow rate of hydrolysis; antitumor efficacy versus equivalent dose of gemcitabine-HCl [7]: comparable; overall toxicity versus equivalent amount of gemcitabine-HCl [7]: less overall toxicity; hydrolysis in liver S9 [8]: hydrolyzed; hydrolysis in liver S9 [9]: hydrolyzed; concentration of intact prodrug in hepatic portal plasma (Mouse Pharmacokinetics; 0.08 hours after oral dosing, CD-1 mice): relatively high concentrations; hydrolysis in vivo to release gemcitabine (Mouse Pharmacokinetics; administered orally to CD-1 mice, approx. 10 mg/kg of gemcitabine): extensively hydrolyzed; plasma exposure to gemcitabine compared to direct oral administration of gemcitabine hydrochloride (Mouse Pharmacokinetics; oral, CD-1 mice): increased; hydrolysis in vivo to release gemcitabine [10]: extensively hydrolyzed; hydrolysis in liver S9 ([11]; monkey liver S9, 10 uM, pH 8.0): hydrolyzed; total compound converted to gemcitabine ([11]; monkey liver S9, 6 hour incubation): approximately 3.5%; hydrolysis in liver S9 ([12]; human liver S9, 10 uM, pH 8.0): hydrolyzed; total compound converted to gemcitabine ([12]; human liver S9, 6 hour incubation): approximately 3.5%; enteropathy versus gemcitabine HCl on a molar equivalent basis [13]: less enteropathy; systemic exposure to gemcitabine HCl versus gemcitabine HCl on a molar equivalent basis [13]: approximately twice; hematotoxicity and the other toxicities, including GI toxicity [14]: consistent with what has been previously described for parenteral gemcitabine; rate of hydrolysis in small intestine homogenate [15]: slow rate of hydrolysis; severity of atrophic intestinal changes or enteropathy versus gemcitabine HCl [16]: significant reduction
